Test results taken from ChEMBL document CHEMBL5143507, “Small Molecule Kinase Inhibitor Drugs (1995-2021): Medical Indication, Pharmacology, and Synthesis” (J Med Chem, 2022).

Key:
[1] = biological target: Receptor tyrosine-protein kinase erbB-2 (Homo sapiens, UniProt P04626); assay: Inhibition of N-terminal GST fused HER2 (679 to 1255 residues) (unknown origin) using poly (Glu-Tyr) E4Y1 peptide as substrate measured after 4 hrs by ADP-Glo reagent method
[2] = biological target: Epidermal growth factor receptor (Homo sapiens, UniProt P00533); assay: Inhibition of N-terminal GST fused EGFR (668 to 1091 residues) (unknown origin) using poly (Glu-Tyr) E4Y1 peptide as substrate incubated for 2 hrs by ADP-Glo reagent method
Sequence of Epidermal growth factor receptor (P00533 whole entry, the tested form may be a part): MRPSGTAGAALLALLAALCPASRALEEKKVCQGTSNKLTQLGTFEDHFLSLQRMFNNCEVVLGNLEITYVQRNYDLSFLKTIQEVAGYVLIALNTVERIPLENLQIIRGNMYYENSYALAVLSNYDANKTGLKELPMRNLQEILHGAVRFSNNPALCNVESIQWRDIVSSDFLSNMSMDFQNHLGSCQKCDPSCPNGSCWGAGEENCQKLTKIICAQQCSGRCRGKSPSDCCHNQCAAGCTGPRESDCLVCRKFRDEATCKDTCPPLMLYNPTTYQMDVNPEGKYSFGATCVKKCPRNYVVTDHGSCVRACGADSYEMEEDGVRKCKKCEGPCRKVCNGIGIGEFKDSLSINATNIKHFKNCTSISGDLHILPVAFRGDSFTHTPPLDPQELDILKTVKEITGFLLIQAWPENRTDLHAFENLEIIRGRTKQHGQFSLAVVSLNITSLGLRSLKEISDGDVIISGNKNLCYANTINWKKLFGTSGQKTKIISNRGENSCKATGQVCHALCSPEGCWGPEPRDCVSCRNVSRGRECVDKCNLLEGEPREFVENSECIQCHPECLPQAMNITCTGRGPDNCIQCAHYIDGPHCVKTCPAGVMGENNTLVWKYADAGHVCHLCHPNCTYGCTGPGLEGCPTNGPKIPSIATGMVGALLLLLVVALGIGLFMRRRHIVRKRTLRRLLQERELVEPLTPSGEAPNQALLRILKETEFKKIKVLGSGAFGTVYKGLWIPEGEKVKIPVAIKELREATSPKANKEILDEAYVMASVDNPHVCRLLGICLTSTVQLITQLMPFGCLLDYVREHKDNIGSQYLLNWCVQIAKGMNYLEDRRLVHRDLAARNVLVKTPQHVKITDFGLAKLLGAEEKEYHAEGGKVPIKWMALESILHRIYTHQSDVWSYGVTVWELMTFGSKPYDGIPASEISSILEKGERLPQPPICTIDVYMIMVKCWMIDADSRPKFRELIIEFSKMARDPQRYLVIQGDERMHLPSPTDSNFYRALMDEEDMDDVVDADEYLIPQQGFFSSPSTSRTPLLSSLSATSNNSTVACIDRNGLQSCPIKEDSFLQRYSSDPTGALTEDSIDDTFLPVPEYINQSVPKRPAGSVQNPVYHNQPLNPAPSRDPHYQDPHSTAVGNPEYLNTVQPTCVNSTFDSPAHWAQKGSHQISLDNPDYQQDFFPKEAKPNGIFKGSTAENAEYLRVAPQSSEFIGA

Sequence of Receptor tyrosine-protein kinase erbB-2 (P04626 whole entry, the tested form may be a part): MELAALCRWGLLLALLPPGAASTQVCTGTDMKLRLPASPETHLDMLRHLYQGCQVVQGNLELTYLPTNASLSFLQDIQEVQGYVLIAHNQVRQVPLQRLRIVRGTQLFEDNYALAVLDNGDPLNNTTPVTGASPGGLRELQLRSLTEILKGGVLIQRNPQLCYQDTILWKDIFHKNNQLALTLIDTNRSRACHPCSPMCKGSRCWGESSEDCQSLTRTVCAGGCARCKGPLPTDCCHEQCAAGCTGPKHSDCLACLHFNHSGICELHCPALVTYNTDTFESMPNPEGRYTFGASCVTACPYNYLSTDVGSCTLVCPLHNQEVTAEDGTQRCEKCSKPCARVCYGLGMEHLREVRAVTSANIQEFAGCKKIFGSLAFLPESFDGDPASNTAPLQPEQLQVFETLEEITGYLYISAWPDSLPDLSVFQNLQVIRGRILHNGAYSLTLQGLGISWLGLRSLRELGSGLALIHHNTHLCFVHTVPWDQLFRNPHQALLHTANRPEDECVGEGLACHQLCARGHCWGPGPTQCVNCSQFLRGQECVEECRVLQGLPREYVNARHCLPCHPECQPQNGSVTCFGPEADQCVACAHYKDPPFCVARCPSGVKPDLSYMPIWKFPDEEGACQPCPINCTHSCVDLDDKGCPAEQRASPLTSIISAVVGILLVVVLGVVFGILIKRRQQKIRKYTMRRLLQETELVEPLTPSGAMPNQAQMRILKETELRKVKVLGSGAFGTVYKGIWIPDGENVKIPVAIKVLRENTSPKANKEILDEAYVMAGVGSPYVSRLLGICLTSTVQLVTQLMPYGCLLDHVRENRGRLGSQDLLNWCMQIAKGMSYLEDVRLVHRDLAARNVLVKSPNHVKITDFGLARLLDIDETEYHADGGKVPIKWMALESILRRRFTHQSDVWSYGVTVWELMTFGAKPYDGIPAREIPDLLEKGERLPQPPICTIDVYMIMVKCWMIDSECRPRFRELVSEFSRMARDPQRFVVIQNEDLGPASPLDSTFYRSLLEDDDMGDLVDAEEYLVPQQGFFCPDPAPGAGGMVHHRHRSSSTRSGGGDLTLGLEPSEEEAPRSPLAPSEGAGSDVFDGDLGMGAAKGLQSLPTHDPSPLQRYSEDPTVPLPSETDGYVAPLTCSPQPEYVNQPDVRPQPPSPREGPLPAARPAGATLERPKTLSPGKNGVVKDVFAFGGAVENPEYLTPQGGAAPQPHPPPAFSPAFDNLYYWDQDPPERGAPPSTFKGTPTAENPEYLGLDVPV

IC50 [1]: 6.9 nM
IC50 [2]: 449 nM
SMILES: Cc1cc(Nc2ncnc3ccc(NC4=NC(C)(C)CO4)cc23)ccc1Oc1ccn2ncnc2c1 [TUCATINIB]
